The values below come from PMC8740820 (Toxicology and applied pharmacology, 2014).

SMILES strings stand for the structures. Where two headings read alike, the source gives them in different places.

The target in assay [1] is T1, zfERα (Danio rerio, UniProt P57717).
T1 sequence (P57717 1-569): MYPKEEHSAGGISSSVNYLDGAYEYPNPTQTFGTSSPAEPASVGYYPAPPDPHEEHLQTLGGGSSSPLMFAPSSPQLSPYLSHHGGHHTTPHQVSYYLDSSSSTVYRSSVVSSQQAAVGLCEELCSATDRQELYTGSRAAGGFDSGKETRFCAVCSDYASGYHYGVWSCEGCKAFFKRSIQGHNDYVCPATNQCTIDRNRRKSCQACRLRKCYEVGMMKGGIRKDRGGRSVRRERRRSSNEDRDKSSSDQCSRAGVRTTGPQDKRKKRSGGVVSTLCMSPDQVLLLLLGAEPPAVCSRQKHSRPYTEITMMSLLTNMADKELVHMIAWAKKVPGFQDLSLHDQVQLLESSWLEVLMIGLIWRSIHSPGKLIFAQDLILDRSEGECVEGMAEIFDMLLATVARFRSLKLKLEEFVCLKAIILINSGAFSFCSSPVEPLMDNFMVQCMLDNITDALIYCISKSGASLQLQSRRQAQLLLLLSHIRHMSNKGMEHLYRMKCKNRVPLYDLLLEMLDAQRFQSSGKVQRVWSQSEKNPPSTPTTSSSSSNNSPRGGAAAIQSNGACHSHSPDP
Description: HELN-zfERα luciferase transactivation assay. Particulars: for potency profile among zfER subtypes: Supplementary Fig. 2A and data not shown.

Assay [2] concerns the target T1, zfERα. Description: HELN-zfERα transcriptional inhibition. Format: cell-based, zebrafish.
Assay [3] has as its target T2, zfERβ1 (Danio rerio, UniProt Q5PR29). Format: cell-based, zebrafish. Conditions: HELN-zfERβ1.
The target of assay [4] is T3, zfERβ2 (Danio rerio, UniProt Q7ZU32). Briefly: HELN-zfERβ2 transcriptional inhibition. Format: cell-based, zebrafish.
In assay [5] the target is T2, zfERβ1. Particulars: for agonistic activity on zfERβ1 (in words): HELN-zfERβ1; for EC50: read-out: zfERβ1 EC50.
The target in assay [6] is T3, zfERβ2. Particulars: for agonistic activity on zfERβ2 (in words): HELN-zfERβ2; for EC50: read-out: zfERβ2 EC50.
The test system of the next assay is 5×ERE:GFP reporter. Particulars: 5×ERE:GFP zebrafish larvae, cited from earlier work; for tissue of GFP expression: ref Gorelik et al., 2014.
The target in assay [7] is T2, zfERβ1. Description: cell-based. Conditions: zfERβ1 EC50, HELN-zfERβ1, 28 °C.
The next assay has as its target T4, hERα (Homo sapiens, UniProt P03372).
T4 sequence (P03372 1-595): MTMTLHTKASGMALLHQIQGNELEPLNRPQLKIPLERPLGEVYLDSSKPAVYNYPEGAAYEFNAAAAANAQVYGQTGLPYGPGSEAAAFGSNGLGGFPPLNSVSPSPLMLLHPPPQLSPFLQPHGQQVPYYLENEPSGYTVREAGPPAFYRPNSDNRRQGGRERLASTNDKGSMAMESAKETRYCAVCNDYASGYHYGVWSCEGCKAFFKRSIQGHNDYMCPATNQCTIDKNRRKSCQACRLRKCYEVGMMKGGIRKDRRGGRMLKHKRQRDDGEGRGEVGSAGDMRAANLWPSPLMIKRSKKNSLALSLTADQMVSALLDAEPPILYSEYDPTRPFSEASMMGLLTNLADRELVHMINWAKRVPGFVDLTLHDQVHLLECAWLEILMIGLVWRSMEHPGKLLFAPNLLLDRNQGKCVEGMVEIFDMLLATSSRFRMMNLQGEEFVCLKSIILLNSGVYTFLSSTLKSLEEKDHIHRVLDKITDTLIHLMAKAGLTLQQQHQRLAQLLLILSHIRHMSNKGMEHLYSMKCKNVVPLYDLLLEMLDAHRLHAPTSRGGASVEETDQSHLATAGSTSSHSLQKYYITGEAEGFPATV
Particulars: HELN-hERα compared to hERβ, ref Escande et al., 2006, cited from earlier work.

For assay [8], the target named is T1, zfERα. Particulars: zebrafish liver-derived cell lines; ref Cosnefroy et al. (2012); cited from earlier work.
The target in assay [9] is T3, zfERβ2. Briefly: cell-based. Particulars: zfERβ2 EC50, HELN-zfERβ2, 28 °C.

`C[C@H]1CCC[C@@H](O)CCC/C=C/c2cc(O)cc(O)c2C(=O)O1` [β-zearalenol]: at zfERα [1], the “potency profile among zfER subtypes” value was “zfERα potency > zfERβ1 potency ≥ β2 potency”.
Turning to `CCC(=C(c1ccc(O)cc1)c1ccc(OCCN(C)C)cc1)c1ccccc1` [4OH-tamoxifen, 1-[p-dimethylaminoethoxyphenyl]-1-(4-hydroxyphenyl)-2-phenyl-1-butene], the “antagonistic activity on zfERα (in words)” value at zfERα [2] is recorded as “full antagonistic activity”. The “antagonistic activity on zfERβ1 (in words)” value on zfERβ1 [3] is recorded as “full antagonistic activity”. The “antagonistic activity on zfERβ2 (in words)” value on zfERβ2 [4] is on record as “full antagonistic activity”. Further, the “agonistic activity on zfERβ1 (in words)” value on zfERβ1 [5] was “No agonistic activity”. The “agonistic activity on zfERβ2 (in words)” value on zfERβ2 [6] was “No agonistic activity”. Further, the “agonistic activity on zfERα (in words)” value at zfERα [1] is “No agonistic activity”.
For the compound `C[C@H]1CCC[C@H](O)CCCCCc2cc(O)cc(O)c2C(=O)O1` [α-Zearalanol, α-zearalanol], on zfERβ1 [5] (HELN-zfERβ1, 28 °C), the EC50 was 0.71 nM.
In the case of `N#CC(Cc1ccc(O)cc1)c1ccc(O)cc1` (centres unmarked) [DPN, 2,3-bis(4-hydroxyphenyl)-propionitrile], in the assay on 5×ERE:GFP reporter, the “tissue of GFP expression” value is reported as “preferentially induced GFP expression in the heart valves”.
Take `CC(C)(C)CC(C)(C)c1ccc(O)cc1` [4-Tert-octylphenol, 4-tert-octylphenol]: on zfERβ1 [5], the “agonistic activity on zfERβ1 (in words)” value is “full agonists”. Moreover, the “agonistic activity on zfERβ2 (in words)” value at zfERβ2 [6] is “partial agonists”.
On to `C#C[C@]1(O)CC[C@H]2[C@@H]3CCc4cc(O)ccc4[C@H]3CC[C@@]21C` [EE2, 17α-ethynyl-1,3,5[10]-estratriene-3,17β-diol], for which the EC50 is 0.673 nM on zfERβ1 [5] (HELN-zfERβ1, 37 °C); roughly 0.031 nM at zfERβ2 [6] (HELN-zfERβ2, 28 °C); roughly 0.197 nM at zfERβ2 [6] (HELN-zfERβ2, 37 °C); 0.127 nM at zfERα [1] (read-out: zfERα EC50, HELN-zfERα, 31 °C); 0.19 nM on zfERα [1] (read-out: zfERα EC50, HELN-zfERα, 34 °C); 0.947 nM on zfERα [1] (read-out: zfERα EC50, HELN-zfERα, 37 °C).
For the compound `C[C@]12CC[C@@H]3c4ccc(O)cc4C[C@@H](CCCCCCCCC[S+]([O-])CCCC(F)(F)C(F)(F)F)[C@H]3[C@@H]1CC[C@@H]2O` (stereo partly drawn) [ICI 182,780, 7α,17β-[9[(4,4,5,5,5-pentafluoropentyl)sulfinyl]nonyl]estra-1,3,5(10)-triene-3,17-diol], the “antagonistic activity on zfERα (in words)” value on zfERα [2] is listed as “full antagonistic activity”. Further, the IC50 on zfERα [2] (read-out: zfERα IC50, together with 1 nM E2, 28 °C) is 3 nM. Also, on zfERβ1 [3], the “antagonistic activity on zfERβ1 (in words)” value is recorded as “full antagonistic activity”. Also, the “antagonistic activity on zfERβ2 (in words)” value on zfERβ2 [4] is “full antagonistic activity”. Also, the “agonistic activity on zfERβ1 (in words)” value at zfERβ1 [5] is reported as “No agonistic activity”. At zfERβ2 [6], the “agonistic activity on zfERβ2 (in words)” value is on record as “No agonistic activity”. The “effect on E2-induced fluorescence in liver” value in the assay with 5×ERE:GFP reporter (ref Gorelik and Halpern., 2011) is listed as “reduce the E2-induced fluorescence in liver”. For the same compound, the “agonistic activity on zfERα (in words)” value on zfERα [1] (HELN-zfERα) is “No agonistic activity”.
Consider `CC(C)(c1ccc(O)cc1)c1ccc(O)cc1` [BPA, bisphenol A], for which the “agonistic activity on zfERβ1 (in words)” value at zfERβ1 [5] is “partial agonist”. The “agonistic activity on zfERβ2 (in words)” value on zfERβ2 [6] is listed as “partial agonist”. In addition, the “tissue of GFP expression” value in the assay on 5×ERE:GFP reporter was “preferentially induced GFP expression in the heart valves”. Moreover, it took 1.89 µM to reach a half-maximal effect on zfERβ1 [7] (text value in μM) (EC50). Further, on zfERα [1] (HELN-zfERα), the “agonistic activity on zfERα (in words)” value was “partial agonist”.
Regarding `O=C1C[C@@H](c2ccc(O)cc2)Oc2cc(O)ccc21` [Liquiritigenin, liquiritigenin], the “agonistic activity on zfERβ1 (in words)” value on zfERβ1 [5] is “did not activate zfERβ1 at all”. For the same compound, the EC50 on zfERα [1] (read-out: zfERα EC50, HELN-zfERα, 28 °C) amounted to 563 nM.
As to `C[C@]12CC[C@@H]3c4ccc(O)cc4CC[C@H]3[C@@H]1C[C@H]1OC(=O)C[C@]12O` [16α-LE2, 3,17-Dihydroxy-19-nor-17α-pregna-1,3,5(10)-triene-21,16α-lactone], the “fold potency/selectivity in reporter gene activation hERα over hERβ” value at hERα is listed as “over 1000 fold”; on hERα (listed as 16α-E2) it was 1000 fold. In addition, the “fold higher potency zfERα compared to zfERβ1” value on zfERα [1] (transactivation, 28 °C) is “approximately 429 fold”. The “fold higher potency zfERα compared to zfERβ2” value at zfERα [1] (transactivation, 28 °C) is roughly 115 fold.
On to `C[C@H]1CCC[C@@H](O)CCCCCc2cc(O)cc(O)c2C(=O)O1` [β-zearalanol], for which, on zfERα [1], the “potency profile among zfER subtypes” value was “zfERα potency > zfERβ1 potency ≥ β2 potency”.
On to `O=c1c(-c2ccc(O)cc2)coc2cc(O)cc(O)c12` [Genistein, 40,5,7-trihydroxyisoflavone], for which, in the assay with 5×ERE:GFP reporter, the “tissue of GFP expression” value was “preferentially induced GFP expression in the heart valves”.
As for `Cc1c(-c2ccc(O)cc2)nn(-c2ccc(O)cc2)c1-c1ccc(OCCN2CCCCC2)cc1.Cl.Cl` [MPP, 1,3-bis (4-hydroxyphenyl)-4-methyl-5-[4-(2-piperidinylethoxy)phenol]-1H-pyrazole dihydrochloride], the “antagonistic activity on zfERβ1 (in words)” value at zfERβ1 [3] is given as “slight zfERβ1 selectivity”.
`C[C@H]1CCCC(=O)CCCCCc2cc(O)cc(O)c2C(=O)O1` [zearalanone]: at zfERα [1], the “potency profile among zfER subtypes” value was “zfERα potency > zfERβ1 potency ≥ β2 potency”.
On the same count and under the same terms, as for `C[C@H]1CCCC(=O)CCC/C=C/c2cc(O)cc(O)c2C(=O)O1` [zearalenone], the entry is “zfERα potency > zfERβ1 potency ≥ β2 potency”; as for `C[C@H]1CCC[C@H](O)CCC/C=C/c2cc(O)cc(O)c2C(=O)O1` [α-Zearalenol, α-zearalenol], “zfERα potency > zfERβ1 potency ≥ β2 potency”.
Turning to `O=C(c1ccc(O)cc1O)c1ccc(O)cc1O` [BP2, 2,2′,4,4′-tetrahydroxybenzophenone], the “agonistic activity on zfERβ1 (in words)” value on zfERβ1 [5] was “full agonist”. On zfERβ2 [6], the “agonistic activity on zfERβ2 (in words)” value is given as “full agonist”. Also, the “fold higher potency zfERβ2 compared to zfERβ1” value on zfERβ2 [6] (transactivation, 28 °C) came out at 3 fold. For the same compound, the “fold higher potency zfERα compared to zfERβ1” value is listed as roughly 2 fold on zfERα [8] and 3 fold on zfERα [1] (transactivation, 28 °C). Besides, on zfERα [8], the “fold higher potency zfERα compared to zfERβ2” value is “approximately 1.36 fold”. Also, the EC50 at zfERβ1 [7] was roughly 0.803 µM; on zfERβ2 [9] it was roughly 233 nM; at zfERα [1] (zfERα EC50, HELN-zfERα, 28 °C), roughly 251 nM. Moreover, the “agonistic activity on zfERα (in words)” value at zfERα [1] (HELN-zfERα) was “full agonist”.
`C[C@]12CC[C@@H]3c4ccc(O)cc4CC[C@H]3[C@@H]1CCC2=O` [E1, 1,3,5[10]-estratriene-3-ol-17-one]: the EC50 at zfERβ2 [9] was found to be 12.1 nM.

The term EC50 denotes the concentration needed to bring the measured effect to its halfway point. The term IC50 denotes the concentration needed to halve the response being measured.
